Experimental data taken from patent publication EP0726261A1, “Herbidical 1,2,4 thiadiazoles” (American Cyanamid Company, priority 1995, dated 1996).

Assays:
Assay type in all cases: in vivo
Hordeum vulgare [1] = assay: Preemergence herbicidal activity (Example 67); design: herbicide rating, HORVW: scale not given here; details: pre, 800 g/ha; for herbicide rating, HORVW: rated about 1-3 weeks after treatment
Method in brief: (§1)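 Soil-surface spray, 800g/ha, 400 L/ha, 3 bar; compound in acetone + 0.5% alkylphenol/ethylene oxide condensate, water-diluted. Substrate: peat/volcanic clay/bark/polyamide mix 1:3 with loamy sand. Greenhouse; visual rating ~1-3 wk post-treatment.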

Alopecurus myosuroides [2] = assay: Preemergence herbicidal activity (Example 67); design: herbicide rating, ALOMY: scale not given here; details: pre, 800 g/ha; for herbicide rating, ALOMY: rated about 1-3 weeks after treatment
Method in brief: as §1

Ipomoea hederacea [3] = assay: Postemergence herbicidal activity (Example 67); details: pos, 800 g/ha; for herbicide rating, IPOHE: rated after 10-21 days
Method in brief: (§2)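 Postemergence spray, 800g/ha, 400 L/ha spray volume, 3 bar; 3-6 wk seedlings; acetone + 0.5% Triton X-155, water-diluted; greenhouse; visual rating at 10-21 d.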

Veronica persica [4] = assay: Postemergence herbicidal activity (Example 67); details: pos, 800 g/ha; for herbicide rating, VERPE: rated after 10-21 days
Method in brief: as §2

Setaria viridis [5] = assay: Postemergence herbicidal activity (Example 67); details: pos, 800 g/ha; for herbicide rating, SETVI: rated after 10-21 days
Method in brief: as §2

Galium aparine [6] = assay: Postemergence herbicidal activity (Example 67); details: pos, 800 g/ha; for herbicide rating, GALAP: rated after 10-21 days
Method in brief: as §2

Alopecurus myosuroides [7] = assay: Postemergence herbicidal activity (Example 67); details: pos, 800 g/ha; for herbicide rating, ALOMY: rated after 10-21 days
Method in brief: as §2

Hordeum vulgare [8] = assay: Postemergence herbicidal activity (Example 67); details: pos, 800 g/ha; for herbicide rating, HORVW: rated after 10-21 days
Method in brief: as §2

Zea mays [9] = assay: Postemergence herbicidal activity (Example 67); details: pos, 800 g/ha; for herbicide rating, ZEAMX: rated after 10-21 days
Method in brief: as §2

Triticum aestivum [10] = assay: Postemergence herbicidal activity (Example 67); details: pos, 800 g/ha; for herbicide rating, TRZAW: rated after 10-21 days
Method in brief: as §2

Abutilon theophrasti [11] = assay: Postemergence herbicidal activity (Example 67); details: pos, 800 g/ha; for herbicide rating, ABUTH: rated after 10-21 days
Method in brief: as §2

Chenopodium album [12] = assay: Postemergence herbicidal activity (Example 67); details: pos, 800 g/ha; for herbicide rating, CHEAL: rated after 10-21 days
Method in brief: as §2

Helianthus annuus [13] = assay: Postemergence herbicidal activity (Example 67); details: pos, 800 g/ha; for herbicide rating, HELAN: rated after 10-21 days
Method in brief: as §2

Amaranthus retroflexus [14] = assay: Postemergence herbicidal activity (Example 67); details: pos, 800 g/ha; for herbicide rating, AMARE: rated after 10-21 days
Method in brief: as §2

Ipomoea hederacea [15] = assay: Preemergence herbicidal activity (Example 67); details: pre, 800 g/ha; for herbicide rating, IPOHE: rated about 1-3 weeks after treatment
Method in brief: as §1

Veronica persica [16] = assay: Preemergence herbicidal activity (Example 67); details: pre, 800 g/ha; for herbicide rating, VERPE: rated about 1-3 weeks after treatment
Method in brief: as §1

Galium aparine [17] = assay: Preemergence herbicidal activity (Example 67); details: pre, 800 g/ha; for herbicide rating, GALAP: rated about 1-3 weeks after treatment
Method in brief: as §1

Zea mays [18] = assay: Preemergence herbicidal activity (Example 67); details: pre, 800 g/ha; for herbicide rating, ZEAMX: rated about 1-3 weeks after treatment
Method in brief: as §1

Abutilon theophrasti [19] = assay: Preemergence herbicidal activity (Example 67); details: pre, 800 g/ha; for herbicide rating, ABUTH: rated about 1-3 weeks after treatment
Method in brief: as §1

Chenopodium album [20] = assay: Preemergence herbicidal activity (Example 67); details: pre, 800 g/ha; for herbicide rating, CHEAL: rated about 1-3 weeks after treatment
Method in brief: as §1

Helianthus annuus [21] = assay: Preemergence herbicidal activity (Example 67); details: pre, 800 g/ha; for herbicide rating, HELAN: rated about 1-3 weeks after treatment
Method in brief: as §1

Amaranthus retroflexus [22] = assay: Preemergence herbicidal activity (Example 67); details: pre, 800 g/ha; for herbicide rating, AMARE: rated about 1-3 weeks after treatment
Method in brief: as §1

Triticum aestivum [23] = assay: Preemergence herbicidal activity (Example 67); design: herbicide rating, TRZAW: scale not given here; details: pre, 800 g/ha; for herbicide rating, TRZAW: rated about 1-3 weeks after treatment
Method in brief: as §1

Setaria viridis [24] = assay: Preemergence herbicidal activity (Example 67); design: herbicide rating, SETVI: scale not given here; details: pre, 800 g/ha; for herbicide rating, SETVI: rated about 1-3 weeks after treatment
Method in brief: as §1

CCCCc1nsc(C(=O)NCc2cccs2)n1 [Example 31]
herbicide rating, HORVW (Hordeum vulgare [1]): 0
herbicide rating, ALOMY (Alopecurus myosuroides [2]): 0
herbicide rating, IPOHE (Ipomoea hederacea [3]): 3 (16-29%)
herbicide rating, VERPE (Veronica persica [4]): 0
herbicide rating, SETVI (Setaria viridis [5]): 4 (30-44%)
herbicide rating, GALAP (Galium aparine [6]): 2 (6-15%)
herbicide rating, ALOMY (Alopecurus myosuroides [7]): 2 (6-15%)
herbicide rating, HORVW (Hordeum vulgare [8]): 0
herbicide rating, ZEAMX (Zea mays [9]): 1 (1-5%)
herbicide rating, TRZAW (Triticum aestivum [10]): 2 (6-15%)
herbicide rating, ABUTH (Abutilon theophrasti [11]): 1 (1-5%)
herbicide rating, CHEAL (Chenopodium album [12]): 4 (30-44%)
herbicide rating, HELAN (Helianthus annuus [13]): 2 (6-15%)
herbicide rating, AMARE (Amaranthus retroflexus [14]): 0
herbicide rating, IPOHE (Ipomoea hederacea [15]): 0
herbicide rating, VERPE (Veronica persica [16]): 0
herbicide rating, GALAP (Galium aparine [17]): 0
herbicide rating, ZEAMX (Zea mays [18]): 0
herbicide rating, ABUTH (Abutilon theophrasti [19]): 0
herbicide rating, CHEAL (Chenopodium album [20]): 0
herbicide rating, HELAN (Helianthus annuus [21]): 0
herbicide rating, AMARE (Amaranthus retroflexus [22]): 0
herbicide rating, TRZAW (Triticum aestivum [23]): 0
herbicide rating, SETVI (Setaria viridis [24]): 0

CC(NC(=O)c1nsc(-c2cccc(C(F)(F)F)c2)n1)c1cccs1 (racemic) [Example 3, (R/S)-5-(3-Trifluoromethylphenyl)-[1,2,4]thiadiazole-3-carboxylic acid, [1-(2-thienyl)ethyl]amide]
herbicide rating, HORVW (Hordeum vulgare [1]): 0
herbicide rating, ALOMY (Alopecurus myosuroides [2]): 0
herbicide rating, IPOHE (Ipomoea hederacea [3]): 3 (16-29%)
herbicide rating, VERPE (Veronica persica [4]): 0
herbicide rating, SETVI (Setaria viridis [5]): 8 (91-99%)
herbicide rating, GALAP (Galium aparine [6]): 2 (6-15%)
herbicide rating, ALOMY (Alopecurus myosuroides [7]): 3 (16-29%)
herbicide rating, HORVW (Hordeum vulgare [8]): 2 (6-15%)
herbicide rating, ZEAMX (Zea mays [9]): 1 (1-5%)
herbicide rating, TRZAW (Triticum aestivum [10]): 2 (6-15%)
herbicide rating, ABUTH (Abutilon theophrasti [11]): 1 (1-5%)
herbicide rating, CHEAL (Chenopodium album [12]): 4 (30-44%)
herbicide rating, HELAN (Helianthus annuus [13]): 4 (30-44%)
herbicide rating, AMARE (Amaranthus retroflexus [14]): 2 (6-15%)
herbicide rating, IPOHE (Ipomoea hederacea [15]): 0
herbicide rating, VERPE (Veronica persica [16]): 0
herbicide rating, GALAP (Galium aparine [17]): 0
herbicide rating, ZEAMX (Zea mays [18]): 0
herbicide rating, ABUTH (Abutilon theophrasti [19]): 0
herbicide rating, CHEAL (Chenopodium album [20]): 3 (16-29%)
herbicide rating, HELAN (Helianthus annuus [21]): 0
herbicide rating, AMARE (Amaranthus retroflexus [22]): 0
herbicide rating, TRZAW (Triticum aestivum [23]): 0
herbicide rating, SETVI (Setaria viridis [24]): 0

COCCc1nsc(C(=O)NC(C)c2cccs2)n1 (racemic) [Example 33]
herbicide rating, HORVW (Hordeum vulgare [1]): 0
herbicide rating, ALOMY (Alopecurus myosuroides [2]): 0
herbicide rating, IPOHE (Ipomoea hederacea [3]): 4 (30-44%)
herbicide rating, VERPE (Veronica persica [4]): 0
herbicide rating, SETVI (Setaria viridis [5]): 6 (65-79%)
herbicide rating, GALAP (Galium aparine [6]): 3 (16-29%)
herbicide rating, ALOMY (Alopecurus myosuroides [7]): 3 (16-29%)
herbicide rating, HORVW (Hordeum vulgare [8]): 3 (16-29%)
herbicide rating, ZEAMX (Zea mays [9]): 0
herbicide rating, TRZAW (Triticum aestivum [10]): 2 (6-15%)
herbicide rating, ABUTH (Abutilon theophrasti [11]): 2 (6-15%)
herbicide rating, CHEAL (Chenopodium album [12]): 2 (6-15%)
herbicide rating, HELAN (Helianthus annuus [13]): 4 (30-44%)
herbicide rating, AMARE (Amaranthus retroflexus [14]): 0
herbicide rating, IPOHE (Ipomoea hederacea [15]): 0
herbicide rating, VERPE (Veronica persica [16]): 5 (45-64%)
herbicide rating, GALAP (Galium aparine [17]): 0
herbicide rating, ZEAMX (Zea mays [18]): 0
herbicide rating, ABUTH (Abutilon theophrasti [19]): 0
herbicide rating, CHEAL (Chenopodium album [20]): 2 (6-15%)
herbicide rating, HELAN (Helianthus annuus [21]): 0
herbicide rating, AMARE (Amaranthus retroflexus [22]): 0
herbicide rating, TRZAW (Triticum aestivum [23]): 0
herbicide rating, SETVI (Setaria viridis [24]): 0

O=C(NCc1cccs1)c1nc(-c2cccc(F)c2)ns1 [Example 44]
HOR VW rating (Hordeum vulgare [1]): 0
ALO MY rating (Alopecurus myosuroides [2]): 4 (30-44%)
IPO HE rating (Ipomoea hederacea [3]): 3 (16-29%)
VER PE rating (Veronica persica [4]): 0
SET VI rating (Setaria viridis [5]): 3 (16-29%)
GAL AP rating (Galium aparine [6]): 3 (16-29%)
ALO MY rating (Alopecurus myosuroides [7]): 0
HOR VW rating (Hordeum vulgare [8]): 3 (16-29%)
ZEA MX rating (Zea mays [9]): 2 (6-15%)
TRZ AW rating (Triticum aestivum [10]): 3 (16-29%)
ABU TH rating (Abutilon theophrasti [11]): 0
CHE AL rating (Chenopodium album [12]): 0
HEL AN rating (Helianthus annuus [13]): 0
AMA RE rating (Amaranthus retroflexus [14]): 0
IPO HE rating (Ipomoea hederacea [15]): 3 (16-29%)
VER PE rating (Veronica persica [16]): 0
GAL AP rating (Galium aparine [17]): 0
ZEA MX rating (Zea mays [18]): 0
ABU TH rating (Abutilon theophrasti [19]): 0
CHE AL rating (Chenopodium album [20]): 0
HEL AN rating (Helianthus annuus [21]): 0
AMA RE rating (Amaranthus retroflexus [22]): 0
TRZ AW rating (Triticum aestivum [23]): 0
SET VI rating (Setaria viridis [24]): 3 (16-29%)

O=C(Nc1ccc(F)cc1)c1nsc(-c2cccc(C(F)(F)F)c2)n1 [Example 63]
HOR VW rating (Hordeum vulgare [1]): 0
ALO MY rating (Alopecurus myosuroides [2]): 4 (30-44%)
IPO HE rating (Ipomoea hederacea [3]): 0
VER PE rating (Veronica persica [4]): 0
SET VI rating (Setaria viridis [5]): 3 (16-29%)
GAL AP rating (Galium aparine [6]): 0
ALO MY rating (Alopecurus myosuroides [7]): 0
HOR VW rating (Hordeum vulgare [8]): 1 (1-5%)
ZEA MX rating (Zea mays [9]): 0
TRZ AW rating (Triticum aestivum [10]): 0
ABU TH rating (Abutilon theophrasti [11]): 1 (1-5%)
CHE AL rating (Chenopodium album [12]): 0
HEL AN rating (Helianthus annuus [13]): 0
AMA RE rating (Amaranthus retroflexus [14]): 0
IPO HE rating (Ipomoea hederacea [15]): 3 (16-29%)
VER PE rating (Veronica persica [16]): 0
GAL AP rating (Galium aparine [17]): 0
ZEA MX rating (Zea mays [18]): 0
ABU TH rating (Abutilon theophrasti [19]): 0
CHE AL rating (Chenopodium album [20]): 0
HEL AN rating (Helianthus annuus [21]): 0
AMA RE rating (Amaranthus retroflexus [22]): 0
TRZ AW rating (Triticum aestivum [23]): 2 (6-15%)
SET VI rating (Setaria viridis [24]): 2 (6-15%)

Cc1ccc(-c2nc(C(=O)NC(C)c3cccs3)ns2)cc1 (racemic) [Example 41]
HOR VW rating (Hordeum vulgare [1]): 0
ALO MY rating (Alopecurus myosuroides [2]): 0
IPO HE rating (Ipomoea hederacea [3]): 3 (16-29%)
VER PE rating (Veronica persica [4]): 0
SET VI rating (Setaria viridis [5]): 8 (91-99%)
GAL AP rating (Galium aparine [6]): 3 (16-29%)
ALO MY rating (Alopecurus myosuroides [7]): 2 (6-15%)
HOR VW rating (Hordeum vulgare [8]): 2 (6-15%)
ZEA MX rating (Zea mays [9]): 2 (6-15%)
TRZ AW rating (Triticum aestivum [10]): 2 (6-15%)
ABU TH rating (Abutilon theophrasti [11]): 1 (1-5%)
CHE AL rating (Chenopodium album [12]): 5 (45-64%)
HEL AN rating (Helianthus annuus [13]): 5 (45-64%)
AMA RE rating (Amaranthus retroflexus [14]): 3 (16-29%)
IPO HE rating (Ipomoea hederacea [15]): 0
VER PE rating (Veronica persica [16]): 3 (16-29%)
GAL AP rating (Galium aparine [17]): 0
ZEA MX rating (Zea mays [18]): 4 (30-44%)
ABU TH rating (Abutilon theophrasti [19]): 0
CHE AL rating (Chenopodium album [20]): 3 (16-29%)
HEL AN rating (Helianthus annuus [21]): 0
AMA RE rating (Amaranthus retroflexus [22]): 0
TRZ AW rating (Triticum aestivum [23]): 0
SET VI rating (Setaria viridis [24]): 0
